Data on two molecules can be found in ChEMBL document CHEMBL1158975, “An antiviral sesquiterpene hydroquinone from the marine sponge Strongylophora hartmani” (J Nat Prod, 1991).

The structures appear in SMILES notation. Values after ≈ are worked out from the molar mass of the structure shown.

The test system of one series is P388. The series is described as follows: Cytotoxicity against mouse P388 cells by microculture tetrazolium assay. The format is functional, cell-based.
A further series has as its system Influenza A virus. The series is described as follows: Antiviral activity against influenza virus A/Puerto Rico/8/34 H1N1 in MDCK cells assessed as reduction in virus-induced cytopathic effect after 3 days by neutral red uptake assay. Type of series: functional, organism-based. As to conditions: A/Puerto Rico/8/1934(H1N1), 72 h. A general note: Protection from cytopathic effect is a common read-out in antiviral testing.

A short description of series [1]: Therapeutic index, ratio of cytotoxicity against MDCK cells to IC50 for influenza virus A/Puerto Rico/8/34 H1N1. The following applies: dog, read-out: TI. Type of series: cell-based.

As usually defined, the IC50 is the concentration that gives 50% inhibition. As to `COc1ccc(O)c2c1C[C@]1(C)[C@@H](C)CC[C@H]3C(C)(C)CCC[C@]31O2` [STRONGYLIN A], the IC50 turned out to be 13 µg/mL (≈ 37.7 µM) with P388 and 6.5 µg/mL (≈ 18.9 µM) in the series with Influenza A virus. Further, the selectivity ratio in series [1] worked out at 9.
Taken in the same sequence, the figures for `COc1ccc(OC(C)=O)c2c1C[C@]1(C)[C@@H](C)CC[C@H]3C(C)(C)CCC[C@]31O2` were 23.8 µg/mL (≈ 61.6 µM), 5 µg/mL (≈ 12.9 µM) and 100.
